≈ marks a conversion by molar mass, not a printed value.
What was measured:
Assay type in all cases: functional
Staphylococcus aureus = assay: Antibacterial activity against Staphylococcus aureus assessed as reduction in pathogen growth
Escherichia coli = assay: Antibacterial activity against Escherichia coli assessed as reduction in pathogen growth
Bacillus subtilis = assay: Antibacterial activity against Bacillus subtilis assessed as reduction in pathogen growth

SMILES | MIC (Staphylococcus aureus) [µg/mL] | MIC (Escherichia coli) [µg/mL] | MIC (Bacillus subtilis) [µg/mL]
COc1cc2c(c(O)c1OC)Oc1ccccc1CC2 | > 256 | > 256 | 256 (≈ 940 µM)
COc1c(O)cc2c(c1OC)Oc1ccccc1CC2 | 256 (≈ 940 µM) | > 256 | 256 (≈ 940 µM)
COc1cc2c(c(OC)c1OC)Oc1ccc(NCc3ccccc3)cc1CC2 | > 256 | > 256 | > 256
COc1cc2c(c(OC)c1OC)Oc1ccc(Nc3ccccc3)cc1CC2 | > 256 | > 256 | > 256
Oc1cc2c(c(O)c1O)Oc1ccc(Cl)cc1CC2 | 64 (≈ 230 µM) | > 256 | 128 (≈ 459 µM)
COC(=O)c1ccccc1-c1ccc2c(c1)CCc1cc(OC)c(OC)c(OC)c1O2 | > 256 | > 256 | > 256
COc1cc2c(c(OC)c1OC)Oc1ccc(Cl)cc1CC2 | > 256 | > 256 | > 256
COc1ccc(-c2ccc3c(c2)CCc2cc(OC)c(OC)c(OC)c2O3)cc1 | > 256 | > 256 | > 256
COc1c(O)cc2c(c1O)Oc1ccc(-c3ccccc3)cc1CC2 | 16 (≈ 47.9 µM) | > 256 | 16 (≈ 47.9 µM)
COc1cc2c(c(OC)c1OC)Oc1c(Cl)cccc1CC2 | > 256 | > 256 | > 256
COc1cc2c(c(OC)c1OC)Oc1cccc(Cl)c1CC2 | > 256 | > 256 | > 256
COc1c(O)cc2c(c1OC)Oc1ccc(Br)cc1CC2 | 16 (≈ 45.6 µM) | > 256 | 16 (≈ 45.6 µM)
COc1cc2c(c(OC)c1OC)Oc1ccc(N3CCOCC3)cc1CC2 | > 256 | > 256 | > 256
COc1cc2c(c(OC)c1OC)Oc1ccc(-c3ccccc3)cc1CC2 | > 256 | > 256 | > 256
COc1cc2c(c(OC)c1OC)Oc1ccc(N3CCCCC3)cc1CC2 | > 256 | > 256 | > 256
Oc1cc2c(c(O)c1O)Oc1ccccc1CC2 | 64 (≈ 262 µM) | > 256 | 128 (≈ 524 µM)
COc1c(O)cc2c(c1O)Oc1ccc(NCc3ccccc3)cc1CC2 | 64 (≈ 176 µM) | > 256 | 64 (≈ 176 µM)
Oc1cc2c(c(O)c1O)Oc1cccc(Cl)c1CC2 | 8 (≈ 28.7 µM) | 256 (≈ 919 µM) | 16 (≈ 57.4 µM)
COc1ccc2c(c1)CCc1cc(O)c(OC)c(O)c1O2 | 128 (≈ 444 µM) | > 256 | 128 (≈ 444 µM)

SMILES | MIC (Staphylococcus aureus) [µg/mL] | MIC (Escherichia coli) [µg/mL] | MIC (Bacillus subtilis) [µg/mL]
COc1c(O)cc2c(c1O)Oc1ccc(O)cc1CC2 | 256 (≈ 933 µM) | > 256 | 256 (≈ 933 µM)
COc1cc2c(c(OC)c1OC)Oc1ccc(C)cc1CC2 | > 256 | > 256 | > 256
COc1c(O)cc2c(c1O)Oc1ccc(N3CCOCC3)cc1CC2 | 256 (≈ 746 µM) | > 256 | 256 (≈ 746 µM)
COc1c(O)cc2c(c1O)Oc1ccc(Nc3ccccc3)cc1CC2 | 32 (≈ 91.6 µM) | > 256 | 32 (≈ 91.6 µM)
Cc1ccc2c(c1)CCc1cc(O)c(O)c(O)c1O2 | 16 (≈ 61.9 µM) | 256 (≈ 991 µM) | 32 (≈ 124 µM)
CCN(CC)c1ccc2c(c1)CCc1cc(OC)c(OC)c(OC)c1O2 | > 256 | > 256 | > 256
Oc1cc2c(c(O)c1O)Oc1c(Cl)cccc1CC2 | 32 (≈ 115 µM) | > 256 | 32 (≈ 115 µM)
COc1ccc2c(c1)CCc1cc(OC)c(OC)c(OC)c1O2 | > 256 | > 256 | > 256
COc1c(O)cc2c(c1O)Oc1ccccc1CC2 | 256 (≈ 991 µM) | > 256 | 256 (≈ 991 µM)
COc1cc2c(c(O)c1OC)Oc1ccc(Br)cc1CC2 | 32 (≈ 91.1 µM) | > 256 | 32 (≈ 91.1 µM)
COc1cc2c(c(OC)c1OC)Oc1ccccc1CC2 | > 256 | > 256 | > 256
CCN(CC)c1ccc2c(c1)CCc1cc(O)c(OC)c(O)c1O2 | 64 (≈ 194 µM) | > 256 | 64 (≈ 194 µM)
COc1cc2c(c(OC)c1OC)Oc1ccc(Br)cc1CC2 | > 256 | > 256 | > 256
COc1cc2c(c(OC)c1OC)Oc1ccc(N)cc1CC2 | > 256 | > 256 | > 256
Oc1cc2c(c(O)c1O)Oc1ccc(Br)cc1CC2 | 16 (≈ 49.5 µM) | > 256 | 8 (≈ 24.8 µM)
COc1c(O)cc2c(c1O)Oc1ccc(Br)cc1CC2 | 16 (≈ 47.5 µM) | > 256 | 16 (≈ 47.5 µM)
COc1c(O)cc2c(c1O)Oc1ccc(N3CCCCC3)cc1CC2 | 128 (≈ 375 µM) | > 256 | 64 (≈ 187 µM)
O=C(N[C@H](CO)[C@H](O)c1ccc([N+](=O)[O-])cc1)C(Cl)Cl [CHLORAMPHENICOL] | 8 (≈ 24.8 µM) | 8 (≈ 24.8 µM) | 4 (≈ 12.4 µM)

Reference: ChEMBL document CHEMBL5223111, “Total synthesis and antibacterial evaluation of Empetroxepins A and B and related analogs” (2022)
